Data on 67 compounds can be found in patent US11613538B2, “Method of inhibiting or reducing a viral infection” (PTC Therapeutics, Inc., priority 2009, dated 2023).

pEC50: −log10 of the molar value.

For the assay, the system named is hypoxia-induced VEGF production in HeLa cells. The assay is described as follows: cells. It counts as cell-based, human. The settings on record: Homo sapiens, HeLa.

In turn, `CCOC(=O)N1CCc2c([nH]c3ccc(Cl)cc23)C1c1cccc(C(=O)NCC(=O)O)c1` (stereo not shown) [Compound 1388] gave a pEC50 of less than 6.00. `CCOC(=O)N1CCc2c([nH]c3ccc(Cl)cc23)C1c1cccc(C(=O)N(C)CC(=O)O)c1` (stereo not shown) [Compound 1389] showed a pEC50 of less than 6.00. `CCOC(=O)N1CCc2c([nH]c3ccc(Br)cc23)C1c1ccc(C(=O)N(C)CC(=O)O)cc1` (stereo not shown) [Compound 1390]: the pEC50 was less than 6.00.

The compound `CCOC(=O)N1CCc2c([nH]c3ccc(Cl)cc23)C1c1ccc(OCCCOCCOC)cc1` (stereo not shown) [Compound 1396] gave a pEC50 of less than 6.00. The compound `[H]/N=C(\N)NCCOc1ccc(C2c3[nH]c4ccc(Cl)cc4c3CCN2C(=O)OCC)cc1` (stereo not shown) [Compound 1397] gave a pEC50 of 6.70 to 7.40. As to `CCOC(=O)N1CCc2c([nH]c3ccc(Cl)cc23)C1c1ccc(OCCNc2nccnn2)cc1` (stereo not shown) [Compound 1398], the pEC50 is 6.70 to 7.40.

`CCOC(=O)N1CCc2c([nH]c3ccc(Cl)cc23)C1c1ccc(OCCn2nc(N)cc2C)cc1` (stereo not shown) [Compound 1399]: the negative logarithm of the EC50 (pEC50) is greater than 8.10. Then `[H]/N=c1\scnn1CCOc1ccc(C2c3[nH]c4ccc(Cl)cc4c3CCN2C(=O)OCC)cc1` (stereo not shown) [Compound 1400], with greater than 8.10; and `CCOC(=O)N1CCc2c([nH]c3ccc(Cl)cc23)C1c1ccc(OCCn2cc(C#N)c(N)n2)cc1` (stereo not shown) [Compound 1401], with 7.40 to 8.10; and `[H]/N=C(\N)NCCOc1ccc(C2c3[nH]c4ccc(Cl)cc4c3CCN2C(=O)OCC#CC)cc1` (stereo not shown) [Compound 1402], with 6.00 to 6.70.

`[H]/N=c1\scnn1CCOc1ccc(C2c3[nH]c4ccc(Cl)cc4c3CCN2C(=O)OCC#CC)cc1` (stereo not shown) [Compound 1403] gave a pEC50 greater than 8.10. For `CC#CCOC(=O)N1CCc2c([nH]c3ccc(Cl)cc23)C1c1ccc(OCCn2cc(C(N)=O)c(N)n2)cc1` (stereo not shown) [Compound 1404], the negative-log EC50 (pEC50) was 6.70 to 7.40. Then `Cc1cc(NCCOc2ccc(C3c4[nH]c5ccc(Cl)cc5c4CCN3C(=O)OCC(C)C)cc2)on1` (stereo not shown) [Compound 1405], with 6.70 to 7.40. `CC(C)COC(=O)N1CCc2c([nH]c3ccc(Cl)cc23)C1c1ccc(OCCOc2cc(N)n[nH]2)cc1` (stereo not shown) [Compound 1406] had a pEC50 of 6.70 to 7.40. Consider `[H]/N=c1\scnn1CCOc1ccc(C2c3[nH]c4ccc(Cl)cc4c3CCN2C(=O)OCC(C)C)cc1` (stereo not shown) [Compound 1407], for which the pEC50 is greater than 8.10. For `CC(C)COC(=O)N1CCc2c([nH]c3ccc(Cl)cc23)C1c1ccc(OCCn2cc(C#N)c(N)n2)cc1` (stereo not shown) [Compound 1408], the pEC50 is greater than 8.10. To `CC(C)COC(=O)N1CCc2c([nH]c3ccc(Cl)cc23)C1c1ccc(OCCNc2ncc[nH]2)cc1` (stereo not shown) [Compound 1409] belongs 6.00 to 6.70; to `[H]/N=C(\N)NCCOc1ccc(C2c3[nH]c4ccc(Cl)cc4c3CCN2C(=O)OCCOC)cc1` (stereo not shown) [Compound 1410], less than 6.00. To `COCCOC(=O)N1CCc2c([nH]c3ccc(Cl)cc23)C1c1ccc(OCCNc2cc(C)no2)cc1` (stereo not shown) [Compound 1411] belongs 6.00 to 6.70; to `[H]/N=c1\scnn1CCOc1ccc(C2c3[nH]c4ccc(Cl)cc4c3CCN2C(=O)OCCOC)cc1` (stereo not shown) [Compound 1412], 7.40 to 8.10; to `CCOC(=O)N1CCc2c([nH]c3cc(C(F)(F)F)ccc23)C1c1ccc(OC)cc1` (stereo not shown) [Compound 1423], less than 6.00.

`COc1ccc(C2c3[nH]c4cc(C(F)(F)F)ccc4c3CCN2C(=O)Oc2ccc(F)cc2)cc1` (stereo not shown) [Compound 1424] had a pEC50 of less than 6.00. `COc1ccc(OC(=O)N2CCc3c([nH]c4cc(C(F)(F)F)ccc34)C2c2ccc(OC)cc2)cc1` (stereo not shown) [Compound 1425] had a pEC50 of less than 6.00. The compound `COc1ccc(C2c3[nH]c4c(C)cccc4c3CCN2C(=O)Oc2ccc(C)cc2)cc1` (stereo not shown) [Compound 1426] gave a pEC50 of less than 6.00. With `COc1ccc(OC(=O)N2CCc3c([nH]c4c(C)cccc34)C2c2ccc(OC)cc2)cc1` (stereo not shown) [Compound 1427], the negative-log EC50 (pEC50) was less than 6.00. Consider `CCOC(=O)N1CCc2c([nH]c3c(C)cccc23)C1c1ccc(OC)cc1` (stereo not shown) [Compound 1428], for which the pEC50 was less than 6.00. The compound `COc1ccc(C2c3[nH]c4c(C)cccc4c3CCN2C(=O)Oc2ccc(Cl)cc2)cc1` (stereo not shown) [Compound 1429] showed a pEC50 of less than 6.00. For `CC#CCOC(=O)N1CCc2c([nH]c3c(C)cccc23)C1c1ccc(OC)cc1` (stereo not shown) [Compound 1430], the pEC50 was less than 6.00. Then `COC(=O)N1CCc2c([nH]c3c(C)cccc23)C1c1ccc(OC)cc1` (stereo not shown) [Compound 1431], with less than 6.00; and `N=C1SCCN1CCCOc1ccc(C2c3[nH]c4ccc(Cl)cc4c3CCN2C(=O)OCCF)cc1` (stereo not shown) [Compound 1432], with 7.40 to 8.10. Then `CCOC(=O)N1CCc2c([nH]c3ccc(Cl)cc23)C1c1ccc(OCCNc2ncncn2)cc1` (stereo not shown) [Compound 1433], with greater than 8.10; and `CC#CCOC(=O)N1CCc2c([nH]c3ccc(Cl)cc23)C1c1ccc(OCCn2cc(C#N)c(N)n2)cc1` (stereo not shown) [Compound 1434], with greater than 8.10; and `[H]/N=C(\N)NCCOc1ccc(C2c3[nH]c4ccc(Cl)cc4c3CCN2C(=O)OCC(C)C)cc1` (stereo not shown) [Compound 1435], with 6.00 to 6.70. Turning to `CC(C)COC(=O)N1CCc2c([nH]c3ccc(Cl)cc23)C1c1ccc(OCCNc2ncncn2)cc1` (stereo not shown) [Compound 1436], the pEC50 is greater than 8.10. To `COCCOC(=O)N1CCc2c([nH]c3ccc(Cl)cc23)C1c1ccc(OCCn2nc(N)cc2C)cc1` (stereo not shown) [Compound 1437] belongs 7.40 to 8.10; to `COCCOC(=O)N1CCc2c([nH]c3ccc(Cl)cc23)C1c1ccc(OCCn2cc(C#N)c(N)n2)cc1` (stereo not shown) [Compound 1438], 6.70 to 7.40. In turn, `CC#CCOC(=O)N1CCc2c([nH]c3cc(Cl)ccc23)C1c1ccc(OC)cc1` (stereo not shown) [Compound 1443] showed a pEC50 of 6.00 to 6.70. The compound `COc1ccc(C2c3[nH]c4cc(Cl)ccc4c3CCN2C(=O)Oc2ccc(Cl)cc2)cc1` (stereo not shown) [Compound 1444] gave a pEC50 of 6.70 to 7.40. Then `CC#CCOC(=O)N1CCc2c([nH]c3cc(Br)ccc23)C1c1ccc(OC(F)F)cc1` (stereo not shown) [Compound 1445], with 6.70 to 7.40; and `O=C(Oc1ccc(Cl)cc1)N1CCc2c([nH]c3cc(Br)ccc23)C1c1ccc(OC(F)F)cc1` (stereo not shown) [Compound 1446], with 6.70 to 7.40. With `COc1ccc(OC(=O)N2CCc3c([nH]c4cc(Br)ccc34)C2c2ccc(OC(F)F)cc2)cc1` (stereo not shown) [Compound 1447], the pEC50 was 6.70 to 7.40.

Turning to `O=C(OCCF)N1CCc2c([nH]c3cc(Br)ccc23)C1c1ccc(OC(F)F)cc1` (stereo not shown) [Compound 1448], the pEC50 is 6.00 to 6.70. Then `O=C(Oc1ccccc1Cl)N1CCc2c([nH]c3cc(Br)ccc23)C1c1ccc(OC(F)F)cc1` (stereo not shown) [Compound 1449], with 6.00 to 6.70; and `O=C(Oc1ccc(F)cc1)N1CCc2c([nH]c3cc(Br)ccc23)C1c1ccc(OC(F)F)cc1` (stereo not shown) [Compound 1450], with 6.70 to 7.40.

As to `COc1ccc(OC(=O)N2CCc3c([nH]c4cc(Cl)ccc34)C2c2ccc(OC)cc2)cc1` (stereo not shown) [Compound 1455], the pEC50 is less than 6.00. `CC#CCOC(=O)N1CCc2c([nH]c3cc(F)ccc23)C1c1ccc(C)cc1` (stereo not shown) [Compound 1456]: the pEC50 was less than 6.00.

As to `Cc1ccc(C2c3[nH]c4cc(F)ccc4c3CCN2C(=O)Oc2ccc(Cl)cc2)cc1` (stereo not shown) [Compound 1457], the pEC50 was 6.00 to 6.70.

Compound `COc1ccc(OC(=O)N2CCc3c([nH]c4cc(F)ccc34)C2c2ccc(F)cc2)cc1` (stereo not shown) [Compound 1458] showed a pEC50 of less than 6.00.

Consider `O=C(Oc1ccc(Cl)cc1)N1CCc2c([nH]c3cc(F)ccc23)C1c1ccc(F)cc1` (stereo not shown) [Compound 1459], for which the pEC50 was less than 6.00.

Regarding `COc1ccc(OC(=O)N2CCc3c([nH]c4cc(F)ccc34)C2c2ccc(OC)cc2)cc1` (stereo not shown) [Compound 1460], the negative-log EC50 (pEC50) is less than 6.00.

The compound `COc1ccc(C2c3[nH]c4cc(F)ccc4c3CCN2C(=O)Oc2ccc(Cl)cc2)cc1` (stereo not shown) [Compound 1461] gave a negative-log EC50 (pEC50) of 6.00 to 6.70.

Compound `COc1ccc(OC(=O)N2CCc3c([nH]c4cc(F)ccc34)C2c2ccc(OC(F)F)cc2)cc1` (stereo not shown) [Compound 1462] had a pEC50 of 6.00 to 6.70.

With `O=C(Oc1ccc(Cl)cc1)N1CCc2c([nH]c3cc(F)ccc23)C1c1ccc(OC(F)F)cc1` (stereo not shown) [Compound 1463], the pEC50 is 6.70 to 7.40. `CCOC(=O)N1CCc2c([nH]c3ccc(Cl)cc23)C1c1ccc(OCC(O)CNC(=O)CC)cc1` (stereo not shown) [Compound 1464] gave a pEC50 of 7.40 to 8.10. As for `CCOC(=O)N1CCc2c([nH]c3ccc(Cl)cc23)C1c1ccc(OCC(O)CNC(=O)C(C)C)cc1` (stereo not shown) [Compound 1465], the negative logarithm of the EC50 (pEC50) is 7.40 to 8.10. To `CCOC(=O)N1CCc2c([nH]c3ccc(Cl)cc23)C1c1ccc(OCC(O)CNC(=O)C2CC2)cc1` (stereo not shown) [Compound 1466] belongs 7.40 to 8.10; to `CCOC(=O)N1CCc2c([nH]c3ccc(Cl)cc23)C1c1ccc(OCC(O)CNC(=O)c2ccncc2)cc1` (stereo not shown) [Compound 1467], greater than 8.10; to `CCOC(=O)N1CCc2c([nH]c3ccc(Cl)cc23)C1c1ccc(OCC(O)CNC(=O)c2cccnc2)cc1` (stereo not shown) [Compound 1468], greater than 8.10. Compound `CCOC(=O)N1CCc2c([nH]c3ccc(Cl)cc23)C1c1ccc(OCC(O)CNC(=O)c2ccccn2)cc1` (stereo not shown) [Compound 1469] had a pEC50 greater than 8.10. Then `CCOC(=O)NCC(O)COc1ccc(C2c3[nH]c4ccc(Cl)cc4c3CCN2C(=O)OCC)cc1` (stereo not shown) [Compound 1470], with greater than 8.10; and `CCCOC(=O)NCC(O)COc1ccc(C2c3[nH]c4ccc(Cl)cc4c3CCN2C(=O)OCC)cc1` (stereo not shown) [Compound 1471], with greater than 8.10; and `CCOC(=O)N1CCc2c([nH]c3ccc(Cl)cc23)C1c1ccc(OCC(O)CNC(=O)OCCOC)cc1` (stereo not shown) [Compound 1472], with greater than 8.10. As to `CCOC(=O)N1CCc2c([nH]c3ccc(Cl)cc23)C1c1ccc(OCC(O)CNS(=O)(=O)CC)cc1` (stereo not shown) [Compound 1473], the pEC50 was greater than 8.10. Then `CCOC(=O)N1CCc2c([nH]c3ccc(Cl)cc23)C1c1ccc(OCC(O)CNS(=O)(=O)C(C)C)cc1` (stereo not shown) [Compound 1474], with 7.40 to 8.10; and `CCOC(=O)N1CCc2c([nH]c3ccc(Cl)cc23)C1c1ccc(OCC(O)CNS(=O)(=O)C2CC2)cc1` (stereo not shown) [Compound 1475], with greater than 8.10; and `O=C(Oc1ccc(Cl)cc1)N1CCc2c([nH]c3ccc(Cl)cc23)C1c1ccc(OCCCN2CC[C@@H](O)C2)cc1` (stereo partly shown) [Compound 1476], with 6.70 to 7.40. To `COc1ccc(C2c3[nH]c4ccc(Cl)cc4c3CCN2C(=S)Oc2ccc(C)cc2)cn1` (stereo not shown) [Compound 1477] belongs 7.40 to 8.10.

By pEC50 is commonly meant the negative decadic logarithm of the EC50, by convention in mol/L.
